Consider 18 compounds from US20080027141A1, “1,3-Dihydroxyl-9,10-anthraquinone and 3-[(3-amino)-propoxy]- 9,10-anthraquinone derivatives and pharmaceutical compositions comprising the same” (Kaohsiung Medical University, priority 2006, published 2008).

Where two headings read alike, the source gives them in different places.

The test system of series [1] is HT-29 cells (human colorectal adenocarcinoma). Nature of the series: In vitro anticancer assay (cytotoxicity), MTT, HT-29. To be noted: for EC50: Homo sapiens, HT-29, read-out: Cytotoxicity ED50, HT-29.
Description: (§1) For the microassay, the growth medium was supplemented with 10 mM HEPES buffer (pH 7.3) and incubated at 37° C. in a CO2 incubator.
(§2) The cytotoxicity was determined by colorimetric MTT (3-(4,5-dimethylthiazole-2-yl)-2,5-diphenyl-1H-tetrazolium bromide)(Sigma, St. Louis, Mo.) assay as described previously (Wei, Bai-Luh et al. (2000), Eur. J. Med. Chem., 35, 1089-1098). Briefly, cells (5×10^3/well) were plated in 96-well plates and incubated in medium for 6 h, followed by addition of serial dilutions (50 μL/well) of each of the tested compounds. After incubation at 37° C. for 5 or 6 days, the cells were pulsed with 10 μL of MTT (5 mg/mL) and incubated for an additional 4 h at 37° C. Reduced MTT was measured spectrophotometrically using a Dynatech MR 5000 microplate reader (Dynatech Laboratories, Va.) at 550 nm after lysis of cells with 100 μL of 10% SDS in 0.01 M HCl. Control wells contained medium plus cells (total absorbance) or medium alone (background absorbance). Cell death was calculated as the percentage of MTT inhibition:
(§3) In the experiment, 5-fluorouracil(5-Fu) was used as a positive control.
Series [2] relates to HepG2 cells (human hepatoma). Nature of the series: In vitro anticancer assay (cytotoxicity), MTT, HepG2. The following applies: for EC50: Homo sapiens, HepG2, read-out: Cytotoxicity ED50, HepG2; for Cytotoxic activity against HepG2 cells (in words): in vitro.
Description: as §1, §2, §3
For series [3], the system named is Hep3B cells (human hepatoma). Nature of the series: In vitro anticancer assay (cytotoxicity), MTT, Hep3B. The following applies: for EC50: Homo sapiens, Hep3B, read-out: Cytotoxicity ED50, Hep3B.
Description: as §1, §2, §3
The test system of series [4] is Hep3B cells (human hepatoma).
Description: as §1, §2, §3
In series [5] the test system is HT-29 cells (human colorectal adenocarcinoma).
Description: as §1, §2, §3
In series [6] the test system is HepG2 cells (human hepatoma).
Description: as §1, §2, §3
The subject of series [7] is MCF-7 cells (human breast adenocarcinoma).
Description: as §1, §2, §3
The subject of series [8] is several cancer cell lines. Nature of the series: Cytotoxic effects against several cancer cell lines in vitro. It is filed as cell-based.
Description: The cytotoxicity was determined by colorimetric MTT (3-(4,5-dimethylthiazole-2-yl)-2,5-diphenyl-1H-tetrazolium bromide)(Sigma, St. Louis, Mo.) assay as described previously (Wei, Bai-Luh et al. (2000), Eur. J. Med. Chem., 35, 1089-1098). Briefly, cells (5×10^3/well) were plated in 96-well plates and incubated in medium for 6 h, followed by addition of serial dilutions (50 μL/well) of each of the tested compounds. After incubation at 37° C. for 5 or 6 days, the cells were pulsed with 10 μL of MTT (5 mg/mL) and incubated for an additional 4 h at 37° C. Reduced MTT was measured spectrophotometrically using a Dynatech MR 5000 microplate reader (Dynatech Laboratories, Va.) at 550 nm after lysis of cells with 100 μL of 10% SDS in 0.01 M HCl. Control wells contained medium plus cells (total absorbance) or medium alone (background absorbance).
Series [9] has as its system MCF-7 cells (human breast adenocarcinoma). Nature of the series: In vitro anticancer assay (cytotoxicity), MTT, MCF-7. The following applies: for EC50: Homo sapiens, MCF7, read-out: Cytotoxicity ED50, MCF-7; for Cytotoxic activity against MCF-7 cells (in words): in vitro.
Description: as §1, §2, §3
For series [10], the system named is Hep3B cells (human hepatoma). The following applies: Wei, Bai-Luh et al. (2000); read-out: ED50, Hep3B (applicants' earlier study); cited from earlier work.
Series [11] concerns HepG2 cells (human hepatoma). To be noted: Wei, Bai-Luh et al. (2000); read-out: ED50, HepG2 (applicants' earlier study); cited from earlier work.
For series [12], the system named is MCF-7 cells. Kind of series: Flow cytometry analysis (cell cycle, sub-G1, propidium iodide). It is filed as cell-based, human. The procedure:
DNA contents were analyzed by flow cytometry, and apoptosis was measured by the accumulation of sub-G1 DNA contents in cells. Results were representative of three independent experiments; and
Flow cytometry was used to determine the change of cell cycle of human cancer cells caused by the treatment of a compound according to this invention.
MCF cells (1×10^4 cells/mL) were treated with various concentrations (6.9, 13.7, and 27.5 μM) of Compound 16 for different time periods (24 h, 48 h and 72 h), followed by washing with PBS so as to terminate the reaction. After fixation with 4% paraformaldehyde/PBS (pH 7.4) at room temperature for 30 min, the cells were centrifuged at 1,000 rpm for 10 min and then permeabilized with 0.1% Triton-X-100/0.1% sodium citrate at 4° C. for 2 min. Subsequently, propidium iodide (Sigma) in PBS (10 μg/mL) was added to stain the cells at 37° C. for 30 min. The intensity of fluorescence was measured with a FACScan flow cytometer (Becton Dickinson, Mountain View, Calif.). A minimum of 5000 cell counts was collected for the analysis by LYSIS II Software.
It has been recognized that apoptotic cells have reduced DNA stainability with a variety of fluorochromes (Ojeda, F. et al. (1990), Cell Immunol., 125:535-539; Afanasev, V. N. et al. (1986), FEBS Lett., 194: 347-350). The appearance of cells with low DNA stainability forms a “sub-G1 peak”, which has been considered to be the hallmark of cell death by apoptosis (Darzynkiewicz, Z. et al. (1992), Cytometry, 13, 795-808). […] In this invention, the applicants proposed that the NHA derivatives might induce cell death by the same way. MCF-7 cells were treated with different concentrations of representative Compound 16 for different time periods.

In series [13] the test system is MCF-7 cells. Kind of series: DNA fragmentation assay (agarose gel electrophoresis). It is filed as cell-based, human. The following applies: 48 and 72 h incubation, 6.9, 13.7 and 27.5 μM. The procedure: Results were representative of three independent experiments.
DNA fragmentation in general is used to characterize cell death by apoptosis (Wyllic, A. H. et al. (1980), Int. Rev. Cytol., 68:251-306; Arends, M. J. and Wyllic, A. H. (1991), Int. Rev. Exp. Pathol., 32:223-254). Apoptosis of MCF-7 cells after treatment with the representative Compound 16 was also studied by DNA fragmentation assay.
MCF cells (1×10^4 cells/mL) in 150-mm plates were treated with various concentrations (6.9, 13.7, and 27.5 μM) of Compound 16 for different time periods (24 h, 48 h and 72 h), followed by washing with PBS so as to terminate the reaction. After the addition of 100 μL lysis buffer [1% of NP-40 (Sigma) in 20 mM EDTA, 50 mM Tris-HCl, pH 7.5] and mixing, the resultant cell lysates were centrifuged at 14,000 rpm for 5 min and the supernatants were collected. The supernatants were incubated with 50 μL of RNase A (20 mg/mL) and 20 μL of SDS (10%) at 56° C. for 2 h. Thereafter, 35 μL of proteinase K (20 mg/mL) was added and the resultant mixture was incubated at 37° C. overnight. DNA fragments were precipitated after the addition of 150 μL of 10M NH4OAc and 1.2 mL of 100% ethanol at −20° C. overnight. After centrifuging and drying, the thus-obtained DNA pellets were re-suspended in 15 μL Tris-EDTA buffer and electrophoresed on a 1% agarose gel in TBE buffer at 30 V for 8 h. […]

On to `CC(C)NCCCOc1cc(O)c2c(c1)C(=O)c1ccccc1C2=O` [Compound 6, 1-Hydroxy-3-[3-(isopropylamino)-propoxy]-9,10-anthraquinone], for which the EC50 in series [1] was determined as 4.72 µM; in series [2] it was 5.52 µM; in series [3] it was 5.97 µM.
Take `O=C1c2ccccc2C(=O)c2cc(OCCCBr)ccc21` [Compound 4, 3-(3-bromopropoxy)-9,10-anthraquinone]: in series [4], the “Cytotoxic activity against Hep3B cells (in words)” value is on record as “no significant cytotoxic activity”. In addition, in series [5], the “Cytotoxic activity against HT-29 cells (in words)” value is given as “no significant cytotoxic activity”. The “Cytotoxic activity against HepG2 cells (in words)” value in [6] is “no significant cytotoxic activity”.
As for `CC(C)(C)NCCCOc1ccc2c(c1)C(=O)c1ccccc1C2=O` [Compound 14], the EC50 in series [4] is 23.2 µM; in series [7], 20.8 µM; in series [5], 12.9 µM; in series [6] it was 17.5 µM.
Turning to `O=C1c2ccccc2C(=O)c2c(O)cc(O)cc21` [Compound 1, 1,3-dihydroxy-9,10-anthraquinone], in [8], the “Cytotoxic effects against several cancer cell lines (in words)” value was “failed to show cytotoxic effects”.
For the compound `CCCNCCCOc1ccc2c(c1)C(=O)c1ccccc1C2=O` [Compound 10, 3-[3-(Propylamino)-propoxy]-9,10-anthraquinone], the EC50 amounted to 6.19 µM in [1], 8.36 µM in series [9], 8.92 µM in [2] and 12.4 µM in [3].
For `CC(C)CNCCCOc1ccc2c(c1)C(=O)c1ccccc1C2=O` [Compound 13, 3-[3-(Isobutylamino)-propoxy]-9,10-anthraquinone], the EC50 in [1] amounted to 7.72 µM; in [9], 14.2 µM; in [2], 10.4 µM; in series [3], 9.26 µM.
For `CN(C)CCCOc1cc(O)c2c(c1)C(=O)c1ccccc1C2=O` [Compound 19, 1-hydroxy-3-[3-(dimethylamino)-propoxy]-9,10-anthraquinone], the EC50 is ~7.1 µM in [10] and ~2.6 µM in series [11].
Take `CCN(CC)CCCOc1ccc2c(c1)C(=O)c1ccccc1C2=O` [Compound 9, 3-[3-(Diethylamino)-propoxy]-9,10-anthraquinone]: the EC50 came to 11.9 µM in series [1], 16.1 µM in series [9], 17.2 µM in series [2] and 12.8 µM in series [3].
In the same order, the values of `CCCCNCCCOc1ccc2c(c1)C(=O)c1ccccc1C2=O` [Compound 12, 3-[3-(Butylamino)-propoxy]-9,10-anthraquinone] are 14.5 µM, 10.4 µM, 7.12 µM and 14.2 µM.
For `O=C1c2ccccc2C(=O)c2cc(OCCCNC3CCCCC3)ccc21` [Compound 15, 3-[3-(Cyclohexylamino)-propoxy]-9,10-anthraquinone], in series [4], the “Cytotoxic activity against Hep3B cells (in words)” value is listed as “stronger cytotoxic activities”. The EC50 in [1] was found to be 3.86 µM; in [9], 5.79 µM; in series [2], 16 µM; in series [3] it was 4.96 µM. In series [9], the “Cytotoxic activity against MCF-7 cells (in words)” value is recorded as “stronger cytotoxic activities”. Besides, in series [5], the “Cytotoxic activity against HT-29 cells (in words)” value is “stronger cytotoxic activities”.
With `O=C1c2ccccc2C(=O)c2cc(O)ccc21` [Compound 3, 3-hydroxy-9,10-anthraquinone], the “Cytotoxic activity against HT-29 cells (in words)” value in [1] (in vitro) is “no significant cytotoxic activity”. Besides, the “Cytotoxic activity against HepG2 cells (in words)” value in [2] is reported as “no significant cytotoxic activity”. In series [3] (in vitro), the “Cytotoxic activity against Hep3B cells (in words)” value is recorded as “no significant cytotoxic activity”.
With `CN1CCN(CCCOc2ccc3c(c2)C(=O)c2ccccc2C3=O)CC1` [Compound 16], in series [4], the “Cytotoxic activity against Hep3B cells (in words)” value is on record as “less potent cytotoxic activity”. Besides, in series [12] (6.9, 13.7, 27.5 μM), the cell cycle effect entry is “arrest G2/M and S phases”. The “sub-G1 peak in DNA histograms” value in [12] (6.9, 13.7, 27.5 μM, 24, 48, 72 h) is given as “detected”. Further, the maximum apoptosis cells in series [12] (at 72 h) is given as 19.97%. Moreover, in series [13], the DNA fragmentation result was “significantly observed”. In addition, the EC50 was found to be 4.67 µM in series [1], 3.02 µM in series [9], 8.41 µM in [2] and 13.7 µM in series [3]. For the same compound, the “Cytotoxic activity against MCF-7 cells (in words)” value in series [9] is given as “potent cytotoxic activity”. In addition, the “Cytotoxic activity against HT-29 cells (in words)” value in series [5] is “potent cytotoxic activity”. In addition, the “Cytotoxic activity against HepG2 cells (in words)” value in series [6] was “less potent cytotoxic activity”.
`CC(C)=CCc1c(O)cc(O)c2c1C(=O)c1ccccc1C2=O` [Compound 5, 1,3-Dihydroxy-4-prenyl-9,10-anthraquinone]: the EC50 in series [1] was 56.2 µM; in [9], 172 µM; in series [2], 1.23 ± 0.05 µM; in [3], 9.09 µM. Besides, the “Cytotoxic activity against HepG2 cells (in words)” value in series [2] was “potent cytotoxicity”.
With `O=C1c2ccccc2C(=O)c2c(O)cc(OCCCBr)cc21` [Compound 2, 1-hydroxy-3-(3-bromopropoxy)-9,10-anthraquinone], the “Cytotoxic activity against Hep3B cells (in words)” value in series [4] is “no significant cytotoxic activity”. In series [5], the “Cytotoxic activity against HT-29 cells (in words)” value was “no significant cytotoxic activity”. The “Cytotoxic activity against HepG2 cells (in words)” value in series [6] is recorded as “no significant cytotoxic activity”.
In the case of `CCCCNCCCOc1cc(O)c2c(c1)C(=O)c1ccccc1C2=O` [Compound 8, 3-[3-(Butylamino)-propoxy]-1-hydroxy-9,10-anthraquinone], the EC50 in series [1] came out at 6.52 µM; in [2], 4.42 µM; in series [3], 7.93 µM.
For `O=c1[nH]cc(F)c(=O)[nH]1` [Compound 5-FU, 5-fluorouracil, reference compound], the figures for the EC50 in series [1], in [2] and in series [3] were 0.57 µM, 0.25 µM and 0.55 µM, respectively.
As to `CC(C)(C)NCCCOc1cc(O)c2c(c1)C(=O)c1ccccc1C2=O` [Compound 7, 3-[3-(tert-Butylamino)-propoxy]-1-hydroxy-9,10-anthraquinone], the results for the EC50 in series [1], in series [2] and in series [3] were 7.93 µM, 5.3 µM and 6.8 µM, respectively.
Turning to `CC(C)NCCCOc1ccc2c(c1)C(=O)c1ccccc1C2=O` [Compound 11, 3-[3-(Isopropylamino)-propoxy]-9,10-anthraquinone], the EC50 was determined as 7.12 µM in [1], 11.5 µM in [9], 5.39 µM in series [2] and 11.5 µM in series [3]. Further, the “Cytotoxic activity against HepG2 cells (in words)” value in [6] is reported as “potent cytotoxic activity”.
